Source: US6774220B1, “Compounds having lectinic properties and their biological applications” (Association pour le Développement de la Biothérapie …, priority 1995, dated 2004)

Tested on: TG-180 tumour cells
Assay: Antitumour action on grafted TG-180 ascitic tumour
Details: for anti-tumour effect (in words): TG-180 graft in mice
Experimental: In order to test the antitumour capacity of SCL inhibiting sugars, TG-180 tumour cells originating from a tumour resistant to chemical metabolic inhibitors was grafted. In a concentration of 3×10^6 cells injected i.p. into 20 gr Swiss mice, an ascitic tumour is obtained which is detectable in 10 days and kills practically 100% of the animals in 21-25 days.
In parallel series, the various groups of animals were treated 3 days after inoculation, either with a specific sugar (glucosamine, lactose, galacturonate, N.A.N.A., neuramine-lactose) in a 5 to 10% solution, the sugar concentration being 100 mM, or with the same treatment in association with an injection of immuno-stimulant (extract of corynebacterium parvum, Merieux, France), in a dose of 200 g/mouse, or interferon, or both.
4 groups of mice per experiment were used.
They are assessed by the percentage of tumours that appeared on the 10th day, the mean survival time of the animals (MST) in. days, and the final survival (as a percentage).

Structure (SMILES) | Final survival (%) (+CP) | Final survival, Number (+CP) | MST (mean survival time) (+CP) [days] | Tumours on 10th day (%) (+CP) | Tumours on 10th day, number (+CP) | Final survival (%) (+CP +IFN) | Final survival, Number (+CP +IFN) | MST (mean survival time) (+CP +IFN) [days] | Tumours on 10th day (%) (+CP +IFN) | Tumours on 10th day, number (+CP +IFN) | Final survival (%) (+IFN) | Final survival, Number (+IFN) | MST (mean survival time) (+IFN) [days] | Tumours on 10th day (%) (+IFN) | Tumours on 10th day, number (+IFN) | Final survival (%) (agent alone) | Final survival, Number (agent alone) | MST (mean survival time) (agent alone) [days] | Tumours on 10th day (%) (agent alone) | Tumours on 10th day, number (agent alone) | further results
NCCCC(=O)O [GABA, gamma aminobutyric acid] | (53) % | 24 | 68 ± 11 | 55 | 25 | (56) % | 17 | 70 ± 13 | 23 | 7 | (24) % | 11 | 43 ± 10 | 42 | 19 | (13) % | 4 | 35 ± 9 | 46 | 14 | anti-tumour effect (in words): inhibit oncogenesis significantly
OC[C@H]1O[C@@H](O[C@H]2[C@H](O)[C@@H](O)C(O)O[C@@H]2CO)[C@H](O)[C@@H](O)[C@H]1O (stereo partly drawn) [Lactose, lactose] | (46) % | 14 | 82 ± 13 | 10 | 3 | (64) % | 29 | 75 ± 10 | 13 | 6 | (13) % | 6 | 64 ± 9 | 20 | 9 | (3) % | 1 | 26 ± 6 | 36 | 11 | Final survival (%) (+CP, listed as lactose): 43%
CC(=O)N[C@H]1C(O)O[C@H](CO)[C@@H](O)[C@@H]1O (stereo partly drawn) [N-acetylglucosamine] |  |  |  |  |  |  |  |  |  |  |  |  |  |  |  |  |  |  |  |  | anti-tumour effect (in words): comparable anti-tumour effects
CCC(N)C(=O)O (stereo not drawn) [alphaaminobut., alpha aminobutyric acid] | (23) % | 7 | 55 ± 14 | 60 | 18 | (47) % | 14 | 62 ± 14 | 23 | 7 | (0) % | 0 | 25 ± 2 | 30 | 9 | (0) % | 0 | 26 ± 1 | 63 | 19 | 
